The text below walks through data of ChEMBL document CHEMBL1135364, “Synthesis and structure-activity relationships of oxime neurokinin antagonists: discovery of potent arylamides” (Bioorg Med Chem Lett, 2002).

Structures are written as SMILES.

The target of assay [1] is T1, Substance-P receptor (Homo sapiens, UniProt P25103). Briefly: Affinity for human Neurokinin 1 (NK1) receptor expressed in CHO cells at 1 uM. Type of assay: cell-based.
Assay [2] has as its target T2, Substance-K receptor (Homo sapiens, UniProt P21452).
T2 sequence (P21452 whole entry): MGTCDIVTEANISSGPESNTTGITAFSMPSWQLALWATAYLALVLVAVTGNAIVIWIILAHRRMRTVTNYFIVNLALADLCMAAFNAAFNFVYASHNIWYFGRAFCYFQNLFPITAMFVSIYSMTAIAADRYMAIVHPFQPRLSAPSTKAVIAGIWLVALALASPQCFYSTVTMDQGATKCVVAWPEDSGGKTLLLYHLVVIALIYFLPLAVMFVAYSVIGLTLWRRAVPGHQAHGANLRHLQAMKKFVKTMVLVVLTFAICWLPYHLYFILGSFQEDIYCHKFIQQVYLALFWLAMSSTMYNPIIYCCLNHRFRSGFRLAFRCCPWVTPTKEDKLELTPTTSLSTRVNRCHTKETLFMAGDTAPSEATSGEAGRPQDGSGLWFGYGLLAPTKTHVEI
Briefly: Binding affinity test against Neurokinin 2 (NK2) receptor.

For assay [3], the target named is T2, Substance-K receptor. Briefly: Tested for binding affinity of compound against Tachykinin receptor 2.
Assay [4] deals with T1, Substance-P receptor. Kind of assay: Tested for binding affinity against neurokinin 1 (NK1) receptor.
Assay [5] has as its target T3, Substance-K receptor (Homo sapiens) (UniProt P21452).
T3 sequence (whole entry): T2 sequence (P21452 whole entry)
Kind of assay: Tested for binding affinity of compound against Neurokinin 2 (NK2) receptor at 1 uM.

T1 sequence (P25103 whole entry): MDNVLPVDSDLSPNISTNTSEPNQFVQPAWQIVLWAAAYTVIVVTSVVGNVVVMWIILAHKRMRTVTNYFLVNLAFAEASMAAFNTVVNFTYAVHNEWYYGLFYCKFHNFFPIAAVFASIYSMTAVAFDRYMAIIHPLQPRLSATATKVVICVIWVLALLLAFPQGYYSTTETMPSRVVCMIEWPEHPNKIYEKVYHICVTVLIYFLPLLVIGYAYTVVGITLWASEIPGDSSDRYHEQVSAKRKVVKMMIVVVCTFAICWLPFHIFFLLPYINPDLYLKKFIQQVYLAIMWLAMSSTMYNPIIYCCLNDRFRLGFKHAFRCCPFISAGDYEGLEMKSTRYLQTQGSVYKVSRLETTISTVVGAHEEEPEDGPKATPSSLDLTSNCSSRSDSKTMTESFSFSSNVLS

The term inhibition denotes how much of the control response was suppressed. What is called Ki is a dissociation constant, usually derived from enzyme kinetics or from competition with a known ligand. A high value points to a looser hold on the target. In turn, `CO/N=C(\COCc1cc(C(C)(C)C)cc(C(C)(C)C)c1)C(CCN1CCC(O)(c2ccccc2)CC1)c1ccc(Cl)c(Cl)c1` (centres undefined) registered an inhibition on Substance-P receptor [1] of 19%. On Substance-K receptor [2], this compound had an inhibitory constant (Ki) of 130 nM. The matching figures for `CO/N=C(\COCc1ccc2ccccc2c1)C(CCN1CCC(O)(c2ccccc2)CC1)c1ccc(Cl)c(Cl)c1` (centres undefined): 37% and 12 nM. The matching figures for `CO/N=C(\CO/C=C/c1cc(C(F)(F)F)cc(C(F)(F)F)c1)C(CCN1CCC(O)(c2ccccc2)CC1)c1ccc(Cl)c(Cl)c1` (centres undefined): 20% and 100 nM. The like results for `CO/N=C(\COCc1ccc2sc(C)nc2c1)C(CCN1CCC(O)(c2ccccc2)CC1)c1ccc(Cl)c(Cl)c1` (centres undefined) were, in that order, 48% and 21 nM. In turn, `CO/N=C(/COCc1cc(C(F)(F)F)cc(C(F)(F)F)c1)C(CCN1CCC(O)(c2ccccc2)CC1)c1ccc(Cl)c(Cl)c1` (centres undefined) yielded an inhibition constant Ki on Substance-K receptor [3] of 21 nM. In turn, `CO/N=C(\COCc1ccccc1)C(CCN1CCC(O)(c2ccccc2)CC1)c1ccc(Cl)c(Cl)c1` (centres undefined) yielded an inhibition against Substance-P receptor [1] of 33%. At Substance-K receptor [2], this compound gave a Ki of 40 nM. The like results for `CO/N=C(\COCc1ccc2nonc2c1)C(CCN1CCC(O)(c2ccccc2)CC1)c1ccc(Cl)c(Cl)c1` (centres undefined) were, in that order, 29% and 17 nM. In the case of `CO/N=C(\CN(C)S(=O)(=O)c1cc(C(F)(F)F)cc(C(F)(F)F)c1)C(CCN1CCC(O)(c2ccccc2)CC1)c1ccc(Cl)c(Cl)c1` (centres undefined), the inhibitory constant (Ki) on Substance-P receptor [4] amounted to 435 nM; at Substance-K receptor [2] it was 286 nM. Compound `CO/N=C(\COCc1ccc(-c2ccccc2)cc1)C(CCN1CCC(O)(c2ccccc2)CC1)c1ccc(Cl)c(Cl)c1` (centres undefined) had an inhibition against Substance-P receptor [1] of 2%. This compound yielded a Ki on Substance-K receptor [2] of 38 nM. Take `CO/N=C(\CN(C)C(=O)c1cc(C)nc(N(C)C)c1)C(CCN1CCC(O)(c2ccccc2)CC1)c1ccc(Cl)c(Cl)c1` (centres undefined): the Ki on Substance-P receptor [4] came to 2 nM; on Substance-K receptor [2], 1 nM. The compound `CO/N=C(\COCC12CC3CC(CC(C3)C1)C2)C(CCN1CCC(O)(c2ccccc2)CC1)c1ccc(Cl)c(Cl)c1` (centres undefined) registered an inhibition on Substance-P receptor [1] of 0%. The Ki on Substance-K receptor [2] is 7 nM. As to `CO/N=C(\COCc1ccccc1C)C(CCN1CCC(O)(c2ccccc2)CC1)c1ccc(Cl)c(Cl)c1` (centres undefined), the inhibition on Substance-P receptor [1] was 34%. Besides, the Ki at Substance-K receptor [2] is 136 nM. Turning to `CO/N=C(\CN(C)C(=O)c1cc(OC)cc(OC)c1)C(CCN1CCC(O)(c2ccccc2)CC1)c1ccc(Cl)c(Cl)c1` (centres undefined), the Ki was found to be 5 nM at Substance-P receptor [4] and 2 nM at Substance-K receptor [2]. As to `CO/N=C(\CCc1cc(C(F)(F)F)cc(C(F)(F)F)c1)C(CCN1CCC(O)(c2ccccc2)CC1)c1ccc(Cl)c(Cl)c1` (centres undefined), on Substance-P receptor [4], the Ki was 23 nM. In assay [5], this compound registered an inhibition of 51%. Regarding `CO/N=C(\CN(C)C(=O)c1cncc(Br)c1)C(CCN1CCC(O)(c2ccccc2)CC1)c1ccc(Cl)c(Cl)c1` (centres undefined), the Ki on Substance-P receptor [4] is 7 nM; at Substance-K receptor [2], 4 nM. The matching figures for `CO/N=C(\CN(C)C(=O)c1cc(Cl)cc(Cl)c1)C(CCN1CCC(O)(c2ccccc2)CC1)c1ccc(Cl)c(Cl)c1` (centres undefined): 2 nM and 4 nM. Consider `CO/N=C(\COCC1CCCCC1)C(CCN1CCC(O)(c2ccccc2)CC1)c1ccc(Cl)c(Cl)c1` (centres undefined), for which the inhibition on Substance-P receptor [1] was 21%. The compound also gave a Ki at Substance-K receptor [2] of 13 nM.

Regarding `CO/N=C(\COCCc1cc(C(F)(F)F)cc(C(F)(F)F)c1)C(CCN1CCC(O)(c2ccccc2)CC1)c1ccc(Cl)c(Cl)c1` (centres undefined), the figures for the inhibitory constant (Ki) at Substance-P receptor [4] and on Substance-K receptor [2] were 39 nM and 118 nM, respectively. On to `CO/N=C(\CN(C)C(=O)c1cc(C(F)(F)F)cc(C(F)(F)F)c1)C(CCN1CCC(O)(c2ccccc2)CC1)c1ccc(Cl)c(Cl)c1` (centres undefined), for which the results for the Ki at Substance-P receptor [4] and at Substance-K receptor [2] were 4 nM and 9 nM, respectively. At Substance-P receptor [1], `CO/N=C(\COC/C=C/c1cc(C(F)(F)F)cc(C(F)(F)F)c1)C(CCN1CCC(O)(c2ccccc2)CC1)c1ccc(Cl)c(Cl)c1` (centres undefined) had an inhibition of 36%. This compound also came in with an inhibition constant (Ki) on Substance-K receptor [2] of 20 nM. With `CO/N=C(\CNCc1cc(C(F)(F)F)cc(C(F)(F)F)c1)C(CCN1CCC(O)(c2ccccc2)CC1)c1ccc(Cl)c(Cl)c1` (centres undefined), the inhibitory constant (Ki) at Substance-P receptor [4] turned out to be 50 nM; at Substance-K receptor [2] it was 130 nM. `CO/N=C(\COCc1ccc(C(C)(C)C)cc1)C(CCN1CCC(O)(c2ccccc2)CC1)c1ccc(Cl)c(Cl)c1` (centres undefined) showed an inhibition against Substance-P receptor [1] of 6%. The compound further gave an inhibition constant (Ki) on Substance-K receptor [2] of 4 nM.

Compound `CO/N=C(\COCc1ccc2ccc(C(F)(F)F)nc2c1)C(CCN1CCC(O)(c2ccccc2)CC1)c1ccc(Cl)c(Cl)c1` (centres undefined) had an inhibition against Substance-P receptor [1] of 23%. Further, the Ki at Substance-K receptor [2] was determined as 20 nM. Compound `CO/N=C(\COc1cc(C(F)(F)F)cc(C(F)(F)F)c1)C(CCN1CCC(O)(c2ccccc2)CC1)c1ccc(Cl)c(Cl)c1` (centres undefined) registered an inhibitory constant (Ki) at Substance-P receptor [4] of 81 nM. The inhibition in assay [5] worked out at 31%. In the case of `CO/N=C(\C(C)OCc1cc(C(F)(F)F)cc(C(F)(F)F)c1)C(CCN1CCC(O)(c2ccccc2)CC1)c1ccc(Cl)c(Cl)c1` (centres undefined), the Ki came to 75 nM at Substance-P receptor [4] and 157 nM on Substance-K receptor [2]. Take `CO/N=C(\COCc1cc(Br)cc(Br)c1)C(CCN1CCC(O)(c2ccccc2)CC1)c1ccc(Cl)c(Cl)c1` (centres undefined): the Ki turned out to be 10 nM on Substance-P receptor [4] and 15 nM at Substance-K receptor [2]. For the compound `CO/N=C(\COCc1ccc(C)cc1)C(CCN1CCC(O)(c2ccccc2)CC1)c1ccc(Cl)c(Cl)c1` (centres undefined), the inhibition on Substance-P receptor [1] was determined as 48%. The same compound registered a Ki at Substance-K receptor [2] of 9 nM.

As to `CO/N=C(\COC(=O)c1cc(C(F)(F)F)cc(C(F)(F)F)c1)C(CCN1CCC(O)(c2ccccc2)CC1)c1ccc(Cl)c(Cl)c1` (centres undefined), the inhibitory constant (Ki) on Substance-P receptor [4] amounted to 168 nM; at Substance-K receptor [2] it was 25 nM. The like results for `CO/N=C(\COC(=O)Nc1cc(C(F)(F)F)cc(C(F)(F)F)c1)C(CCN1CCC(O)(c2ccccc2)CC1)c1ccc(Cl)c(Cl)c1` (centres undefined) were, in that order, 32 nM and 35 nM. The matching figures for `CO/N=C(\CCCc1cc(C(F)(F)F)cc(C(F)(F)F)c1)C(CCN1CCC(O)(c2ccccc2)CC1)c1ccc(Cl)c(Cl)c1` (centres undefined): 92 nM and 332 nM.
